# In patent US12070445B2, “System and assay for monitoring production/release of membrane-lytic toxins in bacteria and compounds for modulating same” (priority 2021, dated 2024):
# Test system: S. aureus
# Assay: S. aureus growth (OD600)
# Type: cell-based
# Conditions: S. aureus WT and QS mutant with vesicles, 12 hr
# Protocol: Microtiter plate vesicle lysis assays. Portions of media (2 or 10 mL) were inoculated with individual bacterial colonies and allowed to shake overnight. From these overnight cultures, subcultures were prepared by diluting the cultures 1:50 (v/v) in fresh BHI for S. aureus or 1:100 (v/v) in fresh LB for P. aeruginosa. An aliquot of each subculture (178 μL) was added to 20 μL of vesicle suspension and 2 μL of compound solution (dissolved in DMSO at 100× working concentration) in a clear-bottomed, black 96-well microtiter plate (Corning 3904). For controls, DMSO (vehicle) or Triton X-100 (1% final concentration) was substituted for compound. Plate covers were coated with an aqueous solution of 0.05% Triton X-100 and 20% ethanol (Brewster, 2003) to prevent the accumulation of condensation. Plates were incubated in a Biotek Synergy 2 microplate reader running Gen5 1.05 software at 37° C. with shaking at the high-speed setting. Fluorescence (excitation 500 nm, emission 540 nm) and OD600 (absorbance at 600 nm) measurements were recorded every 15 minutes for 12 hours. All experiments were performed in technical triplicate in a single microtiter plate. Biological triplicates were then obtained over three days. GraphPad Prism software (v. 9) was used to generate curves and calculate standard error.
# High-throughput screening and follow-up analysis protocols. Test compounds and positive control 1 were delivered in 2.5 nL aliquots of DMSO with an Echo 550 liquid handler (LabCyte Inc.) into black 384-well microtiter plates (Corning). All test compounds were tested at 10 μM; positive control 1 was tested at 250 nM. DMSO was used as a negative control. Overnight cultures (2 mL) of WT S. aureus (RN6390b) were grown at 37° C. with shaking at 200 rpm. These cultures were diluted 1:500 (v/v) in fresh BHI medium, at which point vesicle solutions were added to a final concentration of 1 mM phospholipid (as determined by ^31P NMR analyses). This vesicle-cell mixture was then added to the 384-well microtiter plates with a Multidrop 384 liquid-dispensing robot (Thermo Scientific) for a total volume of 50 μL per well. Plates were incubated statically for ˜24 hr at 37° C., at which point fluorescence (excitation 483, emission 530) and OD600 (absorbance at 600 nm) measurements were made using a CLARIOstarR Plus microtiter plate reader (BMG Labtech) running MARS data analysis software. Scatter plots were generated using the Collaborative Drug Discovery Vault informatics platform. […] Fluorescence (excitation 510, emission 544) and OD600 measurements were acquired with a PerkinElmer EnVision microtiter plate reader running Envision Manager software. […]
smiles,measurement,value
"CC(C)c1ccc(S(=O)(=O)c2nnn3c2nc(O)c2ccccc23)cc1 [Compound 6, savirin]",impact on cell growth,some effects on growth at later time points
